Counter-ions that a name gives are not always drawn. Like-named read-outs stand apart in the source and are kept apart here. Where a SMILES comes first, the peptide text is derived from it.

In paper PMC8286840, “Identifying SARS-CoV-2 antiviral compounds by screening for small molecule inhibitors of Nsp3 papain-like protease” (Biochemical Journal, 2021) one finds remaining activity data, which are given here for 31 molecules.

The target of test [1] is T1, SARS-CoV-2 PLpro (nsp3 1564–1878) (Severe acute respiratory syndrome coronavirus 2, UniProt P0DTD1). Nature of the test: biochemical. Set-up: FRET-quenched peptide (Pro3) cleavage by PLpro, 10 min pre-incubation, slope over 20 min, normalised to no-compound control. Conditions: low concentration screen, read-out: % of control remaining.
The target of test [2] is T1, SARS-CoV-2 PLpro (nsp3 1564–1878). Nature of the test: biochemical. Set-up: FRET-quenched peptide (Pro3) cleavage by PLpro, 10 min pre-incubation, slope over 20 min, normalised to no-compound control. The note with it: high concentration screen, read-out: % of control remaining.

On to `N=C(N)N/N=C/c1c(Cl)cccc1Cl` [Guanabenz (Acetate)], for which the remaining activity at 1.25 µM in test [1] (Well no.=6652) was found to be 94.5%. In test [2] (Well no.=6652), the remaining activity at 3.75 µM was 100%.
For `N=C(N)N/N=C/c1c(Cl)cccc1Cl` [Guanabenz acetate], the remaining activity at 1.25 µM in test [1] (Well no.=604) was found to be 96.6%. The remaining activity at 3.75 µM in test [2] (Well no.=604) worked out at 96.2%.
On to `N=C(N)N/N=C/c1c(Cl)cccc1Cl` [Guanabenz], for which, in test [1] (Well no.=1693), the remaining activity at 1.25 µM turned out to be 105%. Further, in test [2] (Well no.=1693), the remaining activity at 3.75 µM worked out at 105%.
On to `N=C(N)NC(=O)Cc1c(Cl)cccc1Cl` [Guanfacine (hydrochloride)], for which the remaining activity at 1.25 µM in test [1] (Well no.=6275) is 101%. In addition, the remaining activity at 3.75 µM in test [2] (Well no.=6275) is 102%.
As for `N=C(N)NC(=O)Cc1c(Cl)cccc1Cl` [Guanfacine.HCl], in test [1] (Well no.=1894), the remaining activity at 1.25 µM stood at 95.7%. In addition, the remaining activity at 3.75 µM in test [2] (Well no.=1894) stood at 95.2%.
In the case of `NC(N)=NCCSSCCN=C(N)N` [Guanidinoethyl disulfide dihydrobromide], in test [1] (Well no.=429), the remaining activity at 1.25 µM amounted to 89.1%. The remaining activity at 3.75 µM in test [2] (Well no.=429) was found to be 88.8%.
With `NC(N)=N[C@@H](CC(=O)O)C(=O)O` [Guanidinosuccinic acid], the remaining activity at 1.25 µM in test [1] (Well no.=8176) is 109%. Moreover, the remaining activity at 3.75 µM in test [2] (Well no.=8176) came to 101%.
Turning to `NC(N)=Nc1ccc2[nH]c3c(c2c1)C[C@@]1(O)[C@H]2Cc4ccc(O)c5c4[C@@]1(CCN2CC1CC1)[C@H]3O5` [Guanidinyl-naltrindole di-trifluoroacetate], the remaining activity at 1.25 µM in test [1] (Well no.=763) was 96%. The remaining activity at 3.75 µM in test [2] (Well no.=763) was 99.9%.
Turning to `Nc1nc2c(ncn2[C@@H]2O[C@H](COP(=O)(O)OP(=O)(O)O)[C@@H](O)[C@H]2O)c(=O)[nH]1` [Guanosine 5'-diphosphate disodium salt], the remaining activity at 1.25 µM in test [1] (Well no.=8939) was determined as 98.9%. For the same molecule, the remaining activity at 3.75 µM in test [2] (Well no.=8939) stood at 96.6%.
With `Nc1nc2c(ncn2[C@@H]2O[C@H](CO)[C@@H](O)[C@H]2O)c(=O)[nH]1` [Guanosine], the results for the remaining activity at 1.25 µM in test [1] (Well no.=5248), in test [1] (Well no.=6833) and in test [1] (Well no.=7708) were 96.5%, 97.7% and 94.4%, respectively. The remaining activity at 3.75 µM in test [2] (Well no.=5248) came out at 98%; in test [2] (Well no.=6833) it was 99.5%; in test [2] (Well no.=7708) it was 91.8%.
Turning to `CSc1nc2ccc3nc(NC(=O)C(c4ccccc4)c4ccccc4)sc3c2s1` [Gue1654], in test [1] (Well no.=5404), the remaining activity at 1.25 µM stood at 90.4%. In addition, the remaining activity at 3.75 µM in test [2] (Well no.=5404) was determined as 92.4%.
Turning to `C/C=C1\C(=O)C[C@H]2[C@@H]3CCC4=CC(=O)CC[C@]4(C)[C@H]3CC[C@]12C` [Guggulsterone], in test [1] (Well no.=6918), the remaining activity at 1.25 µM was 103%. Further, in test [2] (Well no.=6918), the remaining activity at 3.75 µM turned out to be 99.7%.
Regarding `O=C(O)C1=CCCNC1` [Guvacine hydrochloride], the remaining activity at 1.25 µM in test [1] (Well no.=460) is 99.2%. The remaining activity at 3.75 µM in test [2] (Well no.=460) came to 99.6%.
As for `O=S(=O)(NCCNC/C=C/c1ccc(Br)cc1)c1cccc2cnccc12` [H 89 dihydrochloride - N-[2-[[3-(4-Bromophenyl)-2-propenyl]amino]ethyl]-5-isoquinolinesulfonamide dihydrochloride], the remaining activity at 1.25 µM in test [1] (Well no.=2636) was determined as 95.6%. Besides, the remaining activity at 3.75 µM in test [2] (Well no.=2636) was determined as 99.1%.
With `CC1CNCCN1S(=O)(=O)c1cccc2cnccc12` (centres unmarked) [H-7 dihydrochloride], the remaining activity at 1.25 µM in test [1] (Well no.=570) was determined as 95.5%. The remaining activity at 3.75 µM in test [2] (Well no.=570) stood at 95.4%.
On to `CNCCNS(=O)(=O)c1cccc2cnccc12` [H-8 dihydrochloride], for which the remaining activity at 1.25 µM in test [1] (Well no.=893) turned out to be 103%. The remaining activity at 3.75 µM in test [2] (Well no.=893) worked out at 99.3%.
As to `CNCCNS(=O)(=O)c1cccc2cnccc12` [H-8, Dihydrochloride], the remaining activity at 1.25 µM in test [1] (Well no.=2431) is 106%. For the same molecule, in test [2] (Well no.=2431), the remaining activity at 3.75 µM worked out at 105%.
`NCCNS(=O)(=O)c1cccc2cnccc12` [H-9 dihydrochloride]: the remaining activity at 1.25 µM in test [1] (Well no.=340) was 96.1%. For the same molecule, the remaining activity at 3.75 µM in test [2] (Well no.=340) amounted to 100%.
For the molecule `O=S(=O)(NCCNC/C=C/c1ccc(Br)cc1)c1cccc2cnccc12` [H-89, Dihydrochloride], the remaining activity at 1.25 µM in test [1] (Well no.=2610) worked out at 88.8%. Moreover, the remaining activity at 3.75 µM in test [2] (Well no.=2610) stood at 86.3%.
In the case of `CCc1ccc(NC(=O)Nc2c[nH]c3ccccc23)cc1` [H-151], the remaining activity at 1.25 µM in test [1] (Well no.=8555) was 102%. The remaining activity at 3.75 µM in test [2] (Well no.=8555) came out at 103%.
Regarding `NCCCC[C@H](NC(=O)[C@H](Cc1c[nH]c2ccccc12)NC(=O)[C@@H](N)CCCCN)C(=O)O` [H-Lys-Trp-Lys-OH] (H-Lys-Trp-Lys-OH), the remaining activity at 1.25 µM in test [1] (Well no.=8180) is 103%. In addition, the remaining activity at 3.75 µM in test [2] (Well no.=8180) turned out to be 103%.
As to `N[C@@H](Cc1ccccc1)C(=O)N[C@@H](Cc1ccccc1)C(=O)O` [H-Phe-Phe-OH] (H-Phe-Phe-OH), in test [1] (Well no.=8742), the remaining activity at 1.25 µM was 96.6%. Moreover, in test [2] (Well no.=8742), the remaining activity at 3.75 µM came out at 104%.
Regarding `N[C@@H](Cc1ccc(O)c(I)c1)C(=O)O` [H-Tyr(3-I)-OH], the remaining activity at 1.25 µM in test [1] (Well no.=7019) stood at 99.7%. Besides, the remaining activity at 3.75 µM in test [2] (Well no.=7019) came out at 99.6%.
Turning to `CC(C)[C@H](N)C(=O)N1CCC[C@H]1C(=O)N1CCC[C@H]1C(=O)O` [H-Val-Pro-Pro-OH (TFA)], the remaining activity at 1.25 µM in test [1] (Well no.=7546) is 100%. The remaining activity at 3.75 µM in test [2] (Well no.=7546) came to 100%.
For `CCOC(=O)C1=C(N)Oc2ccc(Br)cc2[C@H]1[C@H](C#N)C(=O)OCC` [HA14-1], the remaining activity at 1.25 µM in test [1] (Well no.=5007) turned out to be 105%; in test [1] (Well no.=6296), 101%. The remaining activity at 3.75 µM in test [2] (Well no.=5007) worked out at 101%; in test [2] (Well no.=6296), 102%.
As to `O=S(=O)(c1cccc2cnccc12)N1CCCNCC1` [HA1077], the remaining activity at 1.25 µM in test [1] (Well no.=1669) came out at 106%. Moreover, the remaining activity at 3.75 µM in test [2] (Well no.=1669) came to 106%.
For the molecule `NC(N)=NCCNS(=O)(=O)c1cccc2cnccc12` [HA 1004, Dihydrochloride], in test [1] (Well no.=2433), the remaining activity at 1.25 µM stood at 111%. Besides, the remaining activity at 3.75 µM in test [2] (Well no.=2433) worked out at 108%.
On to `O=S(=O)(c1cccc2cnccc12)N1CCCNCC1` [HA 1077, Dihydrochloride Fasudil], for which the remaining activity at 1.25 µM in test [1] (Well no.=2646) was 94.1%. Further, the remaining activity at 3.75 µM in test [2] (Well no.=2646) was 100%.
Take `O=c1[nH]ccc2c(S(=O)(=O)N3CCCNCC3)cccc12` [HA 1100 hydrochloride - 1-[(1,2-Dihydro-1-oxo-5-isoquinolinyl)sulfonyl]hexahydro-1H-1,4-diazepine hydrochloride]: the remaining activity at 1.25 µM in test [1] (Well no.=2526) was 95.2%. Moreover, the remaining activity at 3.75 µM in test [2] (Well no.=2526) was 97.2%.
For `O=S(=O)(c1cccc2cnccc12)N1CCNCC1` [HA-100], the remaining activity at 1.25 µM in test [1] (Well no.=478) came out at 102%. Also, the remaining activity at 3.75 µM in test [2] (Well no.=478) was determined as 101%.
On to `NC(N)=NCCNS(=O)(=O)c1cccc2cnccc12` [HA-1004 hydrochloride], for which the remaining activity at 1.25 µM in test [1] (Well no.=522) came to 101%. Besides, the remaining activity at 3.75 µM in test [2] (Well no.=522) is 99.3%.
